Patent US9242937B2, “Pharmaceutically active disubstituted pyridine derivatives” (Bayer Intellectual Property GmbH, priority 2011, dated 2016)

Tests used:
[1] = test system: cellular CDK9 activity (RNA Polymerase II Ser2 phosphorylation) in HCT-116 cells; experiment: RNA-Polymerase II Ser2 cellular phosphorylation assay; assay type: cell-based; conditions: Homo sapiens, 72 h, normalized with tubulin, read-out: RNA Polymerase II Ser2 Phosphorylation (activity range), IC50
Procedure: HCT-116 cells (DSMZ, Braunschweig, Germany) were maintained in Mc Coy's cell culture medium+glutamine (PAN Biotech GmbH, Aidenbach, Germany) supplemented with 10% fetal calf serum (PAA Laboratories GmbH, Pasching, Austria) and grown at 37° C., 5% CO2. For the cellular phosphorylation assay, cells were seeded with 2×10^5 cells/well/1 ml in 24-well plates (Greiner Bio One, Frickenhausen, Germany; catalog #662160). The compounds of general formula (I) summarized in Table 6 were diluted from a 10 mM DMSO stock solution 1:10 in a total volume of 15 μL DMSO. After overnight incubation at 37° C./5% CO2, 1.5 μL of a compound diluted in DMSO was added to each sample well. Wells with cells and 0.15% DMSO in culture medium were used as positive controls, wells without cells and 0.15% DMSO in culture medium were used as negative controls. The cells were incubated with the compounds for 72 h at 37° C./5% CO2. […] Phosphorylation of RNA Polymerase II Ser2 and tubulin levels for normalization were analyzed afterwards with the Multi-Array technology (Meso Scale Discovery, Gaithersburg, Md., USA), a combination of antibody coupled electrochemiluminescence detection and patterned arrays. […] Finally, plates were washed three times with Tris Wash Buffer, 150 μl 2× Read Buffer (Meso Scale Discovery) were added per well and plates were analyzed immediately in a Sector Imager from Meso Scale Discovery. […]

CDK6/CyclinD3 = target: T1, CDK6/CyclinD3 (Homo sapiens, UniProt Q00534); experiment: Lance Ultra KinaSelect Assay, CDK6; assay type: biochemical; conditions: ULight MBP substrate, ATP 55 μM; read-out: CDK6 LANCE assay (activity range), IC50
T1 construct: purchased Carna
Procedure: This protocol describes how the Lance Ultra KinaSelect Assay was performed to determine half maximal inhibitory concentration (IC50) of compounds of general formula (I) and CDK/Cyclin complexes. The principle behind this enzymatic assay is based upon the phosphorylation of the ULight-Peptide Substrat. It is detected by using a specific EU-labeled anti-phospho peptide antibody. The binding of the Eu-labeled anti-phospho peptide antibody to the phosphorylated ULight labeled peptide gives rise to a FRET-signal. Binding of an inhibitor to the kinase prevents phosphorylation of the ULight-MBP Substrat, resulting in a loss of FRET.
The compounds of general formula (I) summarized in Table 5 were diluted from a 10 mM DMSO stock solution 1:10 in a total volume of 15 μL DMSO. […] Positive and negative controls were calculated from at least 8 different sample wells. […] Before reading, 10 μL the detection buffer (Lance Detection Buffer 1×; EDTA: […]; Eu-Anti-P-MBP: see Table 3) was added. The FRET signal was measured at 340 nm excitation, 665 nm and 615 nm emission (for the kinase tracer and LanthaScreen Eu-AB, respectively) with an Envision spectrophotometer (Perkin Elmer, Waltham, Mass., USA) with 50 μs delay and 300 μs integration time. IC50 values were determined from the sigmoidal dose response curves with the software Quattro Workflow (Quattro GmbH, Munich, Germany).

T1 sequence (Q00534 whole entry): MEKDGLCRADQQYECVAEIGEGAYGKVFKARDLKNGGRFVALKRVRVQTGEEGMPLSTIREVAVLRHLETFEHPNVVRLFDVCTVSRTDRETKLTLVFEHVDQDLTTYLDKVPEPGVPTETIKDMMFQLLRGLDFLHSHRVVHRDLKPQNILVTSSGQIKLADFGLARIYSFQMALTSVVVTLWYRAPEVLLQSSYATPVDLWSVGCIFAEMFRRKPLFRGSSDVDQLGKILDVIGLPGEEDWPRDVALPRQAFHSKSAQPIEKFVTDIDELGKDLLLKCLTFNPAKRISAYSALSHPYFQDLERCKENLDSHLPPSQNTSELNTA
T1 sequence (P30281 whole entry partner): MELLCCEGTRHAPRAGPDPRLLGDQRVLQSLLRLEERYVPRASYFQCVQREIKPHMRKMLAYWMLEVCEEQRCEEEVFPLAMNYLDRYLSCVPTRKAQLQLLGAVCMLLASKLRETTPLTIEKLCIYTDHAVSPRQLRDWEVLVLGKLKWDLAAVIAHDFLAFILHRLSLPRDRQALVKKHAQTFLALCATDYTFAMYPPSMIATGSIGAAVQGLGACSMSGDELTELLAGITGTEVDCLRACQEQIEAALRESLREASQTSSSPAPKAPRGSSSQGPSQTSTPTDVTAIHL

## COc1ccccc1-c1ccnc(Nc2cccc(S(N)(=O)=O)c2)c1 [Compound D1, 3-[(4-(2-Methoxyphenyl)pyridin-2-yl)amino]benzenesulfonamide]
[1]
  IC50: 1 to 10 µM
CDK6/CyclinD3
  IC50: > 10 µM

## COc1cc(F)ccc1-c1ccnc(Nc2cccc(CS(N)(=O)=O)c2)c1 [Compound G1, [3-((4-(4-Fluoro-2-methoxyphenyl)pyridin-2-yl)amino)phenyl]-methanesulfonamide]
CDK6/CyclinD3
  IC50: > 10 µM
